Data: patent US4918172A, “Anthracycline antibiotics” (Sanraku Incorporated, priority 1987, dated 1990)
Values after ≈ are worked out from the molar mass of the structure shown.

How the values were obtained:
Format in all cases: cell-based
[1] = system: mouse leukemia L1210 culture cells; assay: inhibition of DNA synthesis in L1210 culture cells (14C-thymidine uptake); settings: 10% calf serum RPMI 1640, label added 15 minutes after compound, further 60 minutes at 37° C., read-out: 50% Inhibiting Concentration (IC50) DNA Synthesis Inhibition
Procedure: (§1) Activity of inhibition propagation of mouse leukemia L1210 culture cells and of inhibition synthesis of nucleic acid in the cells:
(§2) Then a solution of the compound of the present invention prepared as mentioned above was added to the medium in a different concentration. 15 minutes after the addition, ^14 C-uridine (0.05 μCi/ml) or ^14 C-thymidine (0.05 μCi/ml) was added and the medium was further incubated at 37° C. for an additional 60 minutes. A cold 10% trichloroacetic acid (TCA) was added to the reaction solution so that the reaction was stopped and the acid-insoluble substance was precipitated. This was washed twice with a cold 5% TCA and then dissolved in formic acid. Then the radioactivity of the resulting solution was measured, and the 50% uptake inhibiting concentration was obtained from the radioactivity uptake ratio relative to the control group.

[2] = system: mouse leukemia L1210 culture cells; assay: inhibition of RNA synthesis in L1210 culture cells (14C-uridine uptake); settings: 10% calf serum RPMI 1640, label added 15 minutes after compound, further 60 minutes at 37° C., read-out: 50% Inhibiting Concentration (IC50) RNA Synthesis Inhibition
Procedure: as §1, §2

[3] = system: mouse leukemia L1210 culture cells; assay: inhibition of propagation (50% growth inhibiting concentration) of mouse leukemia L1210 culture cells; settings: read-out: 50% Inhibiting Concentration (IC50) Cell Growth Inhibition
Procedure: as §1
L1210 cells (5×10^4 /ml) were inoculated in RPMI 1640 medium (Rose Wellberg Laboratory) containing 20% calf serum, and the compound of the present invention (as indicated in Table 1 below) was added thereto in a concentration of from 0.0005 to 50.0 μg/ml. Thus the cells were incubated in a CO2 incubator at 37° C. for 48 hours, and the 50% growth inhibiting concentration relative to the control group was obtained. The compound of the present invention was dissolved in M/50 acetic acid (pH 3.0) in a concentration of […] and then diluted with Dulbecco PBS (-) (manufactured by Nissui Pharmaceutical Co.), before being added to the medium.

[4] = L1210 cells, RPMI 1640 with 20% calf serum, 37° C., 48 hours

Row | SMILES | IC50 [1] | IC50 [2] | IC50 [3, 4] | IC50 ([3]; L1210, 48 h)
1 | CCC1(O)CC(OC2CC(N)C(OC3CC(O)C(O)C(C)O3)C(C)O2)c2c(O)c3c(c(O)c2C1C(=O)OC)C(=O)c1cccc(OC)c1C3=O (stereo not drawn) [CG19B] | 10 mg/L (≈ 14.3 µM) | 10 mg/L (≈ 14.3 µM) |  | 
2 | CCC1(O)CC(OC2CC(N)C(OC3CCC(O)C(C)O3)C(C)O2)c2c(O)c3c(c(O)c2C1O)C(=O)c1cccc(O)c1C3=O (stereo not drawn) [CG15A] | 1.2 mg/L (≈ 1.91 µM) | 3 mg/L (≈ 4.76 µM) | 0.002 mg/L (≈ 0.00318 µM) | 
3 | CCC1(O)CC(OC2CC(N)C(OC3CCC(O)C(C)O3)C(C)O2)c2c(O)c3c(c(O)c2C1C(=O)OC)C(=O)c1cccc(OC)c1C3=O (stereo not drawn) [CG19A] | 4.8 mg/L (≈ 7 µM) | 1.3 mg/L (≈ 1.9 µM) | 1 mg/L (≈ 1.46 µM) | 
4 | CC1OC(OC2C(N)CC(OC3CC(O)(C(C)O)Cc4c(O)c5c(c(O)c43)C(=O)c3c(O)cccc3C5=O)OC2C)CC(O)C1O (stereo not drawn) [CG20B] | 10 mg/L (≈ 15.5 µM) | 5 mg/L (≈ 7.74 µM) |  | 
5 | CC1OC(OC2C(N)CC(OC3CC(O)(C(C)O)Cc4c(O)c5c(c(O)c43)C(=O)c3c(O)cccc3C5=O)OC2C)CCC1O (stereo not drawn) [CG20A] | 1.2 mg/L (≈ 1.91 µM) | 1.2 mg/L (≈ 1.91 µM) |  | 
6 | CCC1(O)CC(OC2CC(N)C(OC3CCC(O)C(C)O3)C(C)O2)c2c(O)c3c(c(O)c2C1C(=O)OC)C(=O)c1cccc(O)c1C3=O (stereo not drawn) [CG17A] | 3.3 mg/L (≈ 4.91 µM) | 1.1 mg/L (≈ 1.64 µM) | 0.5 mg/L (≈ 0.744 µM) | 
7 | CCC1(O)CC(OC2CC(N)C(OC3CC(O)C(O)C(C)O3)C(C)O2)c2c(O)c3c(c(O)c2C1C(=O)OC)C(=O)c1cccc(O)c1C3=O (stereo not drawn) [CG17B] | 10 mg/L (≈ 14.5 µM) | 2.3 mg/L (≈ 3.34 µM) | 1.4 mg/L (≈ 2.04 µM) | 
8 | CCC1(O)CC(OC2CC(N)C(OC3CC(O)C(O)C(C)O3)C(C)O2)c2c(O)c3c(c(O)c2C1O)C(=O)c1cccc(O)c1C3=O (stereo not drawn) [CG15B] | 4.6 mg/L (≈ 7.12 µM) | 2.5 mg/L (≈ 3.87 µM) |  | 0.04 mg/L (≈ 0.062 µM)
9 | CCC1(O)CC(OC2CC(NC)C(OC3CCC(O)C(C)O3)C(C)O2)c2c(O)c3c(c(O)c2C1O)C(=O)c1cccc(O)c1C3=O (stereo not drawn) [CG22A] | 0.87 mg/L (≈ 1.35 µM) | 1.4 mg/L (≈ 2.17 µM) |  | 
10 | CCC1(O)CC(OC2CC(N(C)C)C(OC3CCC(O)C(C)O3)C(C)O2)c2c(O)c3c(c(O)c2C1O)C(=O)c1cccc(O)c1C3=O (stereo not drawn) [CG21A] | 0.38 mg/L (≈ 0.578 µM) | 0.18 mg/L (≈ 0.274 µM) |  | 
11 | CCC1(O)CC(OC2CC(NC)C(OC3CC(O)C(O)C(C)O3)C(C)O2)c2c(O)c3c(c(O)c2C1O)C(=O)c1cccc(O)c1C3=O (stereo not drawn) [CG22B] | 5 mg/L (≈ 7.58 µM) | 10 mg/L (≈ 15.2 µM) |  | 
